From patent US10221163B2 (priority 2015, dated 2019)
pIC50: −log10 of the molar value. Read-outs that look alike come from different tables or passages of the source.

What was measured:
VIM-1 = VIM-1 (Pseudomonas aeruginosa (strain ATCC 15692 / DSM 22644 / CIP 104116 / JCM 14847 / LMG 12228 / 1C / PRS 101 / PAO1), UniProt A0A0F7KYQ8); test: biochemical; conditions: CCF2-FA substrate, 30 pM enzyme, 2 hours at 25° C.
In short: (§1)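 Inhibitor was mixed with the metallo-β-lactamase and CCF2-FA. After 2 hours at 25° C, fluorescence of the coumarin–fluorescein cephalosporin substrate was read. IC50 was calculated with a 4-parameter fit.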

[1] = system: Pseudomonas aeruginosa efflux− (MB9799), IMP-1; format: cell-based; conditions: C, D serine β-lactamase inhibitor closely related to relebactam; for P. aeruginosa expressing IMP-1, efflux − (MB9799) MITC95: concentration restoring susceptibility to imipenem at 2 μg/mL in the presence of a class A; for Concentration of metallo-β-lactamase inhibitor which restores susceptibility of efflux − (MB9799) strain to imipenem: imipenem at 2 μg/mL, in the presence of a class A
In short: (§2)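 Microbroth MIC tests in PAO1-background strains with fixed imipenem and/or ceftazidime, usually at the CLSI breakpoint, plus fixed class A/C β-lactamase inhibitor against AmpC. MBL inhibitor titrated; concentration restoring susceptibility recorded and compared as fold difference between efflux+ MB9798 and efflux− MB9799.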

[2] = system: Pseudomonas aeruginosa MB9798 vs MB9799
In short: as §2

IMP-1 = IMP-1 (Serratia marcescens, UniProt P52699); test: biochemical; format: biochemical; conditions: fluorescence assay, CCF2-FA substrate, 2 pM enzyme, 2 hours at 25° C.; read-out: IMP-1 IC50
Chain of IMP-1 (P52699 whole entry, looked up, species assumed): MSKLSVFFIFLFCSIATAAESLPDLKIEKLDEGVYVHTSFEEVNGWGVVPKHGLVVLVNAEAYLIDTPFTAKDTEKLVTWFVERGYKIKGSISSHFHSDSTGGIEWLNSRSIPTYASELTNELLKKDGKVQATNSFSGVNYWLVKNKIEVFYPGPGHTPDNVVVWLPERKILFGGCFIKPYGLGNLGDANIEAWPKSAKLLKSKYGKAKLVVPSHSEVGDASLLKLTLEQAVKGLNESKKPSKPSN
In short: as §1

NDM-1 = NDM-1 (Klebsiella pneumoniae, UniProt C7C422); test: biochemical; format: biochemical; conditions: fluorescence assay, CCF2-FA substrate, 1 pM enzyme, 2 hours at 25° C.; read-out: NDM-1 IC50
Chain of NDM-1 (C7C422 whole entry, looked up, species assumed): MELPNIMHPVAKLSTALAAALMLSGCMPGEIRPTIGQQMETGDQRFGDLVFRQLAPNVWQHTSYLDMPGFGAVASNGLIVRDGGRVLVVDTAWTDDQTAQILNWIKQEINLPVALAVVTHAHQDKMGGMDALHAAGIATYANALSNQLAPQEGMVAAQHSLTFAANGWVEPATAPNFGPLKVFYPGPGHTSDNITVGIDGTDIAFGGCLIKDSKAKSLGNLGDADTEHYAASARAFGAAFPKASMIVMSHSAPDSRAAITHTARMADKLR
In short: as §1

[3] = system: Pseudomonas aeruginosa efflux+ (MB9798), IMP-1; format: cell-based; design: Concentration of metallo-β-lactamase inhibitor which restores susceptibility of efflux + (MB9798) strain to imipenem: unit not given here; conditions: C, D serine β-lactamase inhibitor closely related to relebactam; for P. aeruginosa expressing IMP-1, efflux + (MB9798) MITC95: concentration restoring susceptibility to imipenem at 2 μg/mL in the presence of a class A; for Concentration of metallo-β-lactamase inhibitor which restores susceptibility of efflux + (MB9798) strain to imipenem: imipenem at 2 μg/mL, in the presence of a class A
In short: as §2

[4] = system: Klebsiella pneumoniae expressing VIM-1 (IHMA599644); format: cell-based; conditions: for Klebsiella pneumoniae expressing VIM-1 (IHMA599644) MITC95: with imipenem 1 μg/ml; for Klebsiella pneumoniae MITC95: VIM-1 strain IHMA599644, with imipenem 1 μg/ml
In short: (§3)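 Colonies grown overnight on blood agar at 35° C were suspended in saline, diluted 1:100 into 1.1×CAMHB and dispensed. Imipenem was added to 1 μg/ml, then test compound. After 22 hours to 24 hours at 35° C, absorbance was recorded.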

[5] = system: Serratia marcescens expressing IMP-1 (CL5741); format: cell-based; conditions: for Serratia marcescens expressing IMP-1 (CL5741) MITC95: with imipenem 1 μg/ml; for Serratia marcescens MITC95: IMP-1 strain CL5741, with imipenem 1 μg/ml
In short: as §3

[6] = system: Escherichia coli expressing NDM-1 (CLB30005, CLB30016); format: cell-based; conditions: with imipenem 1 μg/ml; for Escherichia coli MITC95: NDM-1 strain
In short: as §3

[7] = fluorescence assay, read-out: VIM-1 IC50
[8] = ratio MITC95 PA_9798/MITC95 PA_9799
[9] = 95% inhibition of bacterial growth
[10] = fold difference between efflux+ (MB9798) and efflux− (MB9799) strains, imipenem at 2 μg/mL

SMILES: Nc1nc2c(-c3ccc(S(=O)(=O)NC4CCC5OC4CC5N)c(S(N)(=O)=O)c3-c3nnn[nH]3)cccc2s1.O=C(O)C(F)(F)F (stereo not drawn) [Example 95, 2-(4-(2-aminobenzo[d]thiazol-4-yl)-2-sulfamoyl-3-(1H-tetrazol-5-yl)phenylsulfonamido)-8-oxabicyclo[3.2.1]octan-6-aminium 2,2,2-trifluoroacetate]
- pIC50 (VIM-1; [7]): 9.76
- P. aeruginosa expressing IMP-1, efflux − (MB9799) MITC95 [1]: 1.563 µM
- Efflux ratio [2, 8]: 1.00
- pIC50 (IMP-1): 9.72
- pIC50 (NDM-1): 10.57
- P. aeruginosa expressing IMP-1, efflux + (MB9798) MITC95 [3]: 1.563 µM
- Klebsiella pneumoniae expressing VIM-1 (IHMA599644) MITC95 [4, 9]: 3.125 µM
- Serratia marcescens expressing IMP-1 (CL5741) MITC95 [5, 9]: 3.125 µM
- Escherichia coli expressing NDM-1 (CLB30016) MITC95 [6, 9]: 1.563 µM

SMILES: CC1(NS(=O)(=O)c2ccc(-c3ccc(N)nc3)c(-c3nn[nH]n3)c2S(N)(=O)=O)CNC1.Cl.Cl [Example 497, 4-(6-aminopyridin-3-yl)-1-N-(3-methylazetidin-3-yl)-3-(2H-1,2,3,4-tetrazol-5-yl)benzene-1,2-disulfonamide hydrogen]
- pIC50 (VIM-1; [7]): 9.66
- Concentration of metallo-β-lactamase inhibitor which restores susceptibility of efflux − (MB9799) strain to imipenem [1]: 0.7813
- Efflux ratio [2, 10]: 1.00
- pIC50 (IMP-1): 9.19
- pIC50 (NDM-1): 9.88
- Concentration of metallo-β-lactamase inhibitor which restores susceptibility of efflux + (MB9798) strain to imipenem [3]: 0.7813
- Klebsiella pneumoniae MITC95 [4, 9]: 1.563 µM
- Serratia marcescens MITC95 [5, 9]: 0.7813 µM
- Escherichia coli MITC95 [6, 9]: 0.3906 µM

SMILES: Nc1ncc(-c2cc(-c3ccc(S(=O)(=O)N[C@@H]4CCNC4)c(S(N)(=O)=O)c3-c3nnn[nH]3)ccn2)[nH]1 [Example 440, (R)-4-(2-(2-Amino-1H-imidazol-5-yl)pyridin-4-yl)-N^1-(pyrrolidin-3-yl)-3-(1H-tetrazol-5-yl)benzene-1,2-disulfonamide]
- pIC50 (VIM-1; VIM-1 IC50, fluorescence assay): 9.24
- Concentration of metallo-β-lactamase inhibitor which restores susceptibility of efflux − (MB9799) strain to imipenem [1]: 0.7813
- Efflux ratio [2, 10]: 2.00
- pIC50 (IMP-1): 8.40
- pIC50 (NDM-1): 9.48
- Concentration of metallo-β-lactamase inhibitor which restores susceptibility of efflux + (MB9798) strain to imipenem [3]: 1.563
- Klebsiella pneumoniae MITC95 ([4]; 95% inhibition of growth): 1.563 µM
- Serratia marcescens MITC95 ([5]; 95% inhibition of growth): 1.563 µM
- Escherichia coli MITC95 ([6]; 95% inhibition of growth): 0.7813 µM

SMILES: Nc1cncc(-c2ccc(S(=O)(=O)N[C@@H]3CCNC3)c(S(N)(=O)=O)c2-c2nn[nH]n2)c1 [Example 219, (R)-4-(5-aminopyridin-3-yl)-N1-(pyrrolidin-3-yl)-3-(2H-tetrazol-5-yl)benzene-1,2-disulfonamide]
- pIC50 (VIM-1; [7]): 9.68
- P. aeruginosa expressing IMP-1, efflux − (MB9799) MITC95 [1]: 1.563 µM
- Efflux ratio [2, 8]: 1.00
- pIC50 (IMP-1): 8.71
- pIC50 (NDM-1): 9.44
- P. aeruginosa expressing IMP-1, efflux + (MB9798) MITC95 [3]: 1.563 µM
- Klebsiella pneumoniae expressing VIM-1 (IHMA599644) MITC95 [4, 9]: 1.563 µM
- Serratia marcescens expressing IMP-1 (CL5741) MITC95 [5, 9]: 1.563 µM
- Escherichia coli expressing NDM-1 (CLB30016) MITC95 [6, 9]: 1.563 µM

SMILES: NCCNS(=O)(=O)c1ccc(-c2cccc3[nH]c(CN)nc23)c(-c2nn[nH]n2)c1S(N)(=O)=O [Example 343]
- pIC50 (VIM-1; [7]): 9.68
- P. aeruginosa expressing IMP-1, efflux − (MB9799) MITC95 [1]: 0.7813 µM
- Efflux ratio [2, 8]: 1.00
- pIC50 (IMP-1): 8.86
- pIC50 (NDM-1): 9.71
- P. aeruginosa expressing IMP-1, efflux + (MB9798) MITC95 [3]: 0.7813 µM
- Klebsiella pneumoniae MITC95 ([4]; 95% inhibition of growth): 0.7813 µM
- Serratia marcescens MITC95 ([5]; 95% inhibition of growth): 0.7813 µM
- Escherichia coli MITC95 ([6]; 95% inhibition of growth): 0.7813 µM

SMILES: Cn1c(N)nc2c(-c3ccc(S(=O)(=O)N[C@@H]4CCNC4)c(S(N)(=O)=O)c3-c3nn[nH]n3)cccc21 [Example 164, 4-(2-amino-1-methyl-1H-benzo[d]imidazol-4-yl)-N^1-((R)-pyrrolidin-3-yl)-3-(2H-tetrazol-5-yl)benzene-1,2-disulfonamide]
- pIC50 (VIM-1; [7]): 9.98
- P. aeruginosa expressing IMP-1, efflux − (MB9799) MITC95 [1]: 0.7813 µM
- Efflux ratio [2, 8]: 1.00
- pIC50 (IMP-1): 9.57
- pIC50 (NDM-1): 10.42
- P. aeruginosa expressing IMP-1, efflux + (MB9798) MITC95 [3]: 0.7813 µM
- Klebsiella pneumoniae expressing VIM-1 (IHMA599644) MITC95 [4, 9]: 0.7813 µM
- Serratia marcescens expressing IMP-1 (CL5741) MITC95 [5, 9]: 0.7813 µM
- Escherichia coli expressing NDM-1 (CLB30016) MITC95 [6, 9]: 0.3906 µM

SMILES: Nc1nc2c(-c3ccc(S(=O)(=O)NC[C@@H](N)CO)c(S(N)(=O)=O)c3-c3nn[nH]n3)cccc2[nH]1 [Example 190, 4-(2-amino-1H-benzo[d]imidazol-4-yl)-N1-((R)-2-amino-3-hydroxypropyl)-3-(2H-tetrazol-5-yl)benzene-1,2-disulfonamide]
- pIC50 (VIM-1; [7]): 9.55
- P. aeruginosa expressing IMP-1, efflux − (MB9799) MITC95 [1]: 0.7813 µM
- Efflux ratio [2, 8]: 0.50
- pIC50 (IMP-1): 9.21
- pIC50 (NDM-1): 10.23
- P. aeruginosa expressing IMP-1, efflux + (MB9798) MITC95 [3]: 0.3906 µM
- Klebsiella pneumoniae expressing VIM-1 (IHMA599644) MITC95 [4, 9]: 0.7813 µM
- Serratia marcescens expressing IMP-1 (CL5741) MITC95 [5, 9]: 0.3906 µM
- Escherichia coli expressing NDM-1 (CLB30016) MITC95 [6, 9]: 0.3906 µM

SMILES: Nc1nc2c(-c3ccc(S(=O)(=O)N[C@@H]4CNC[C@@H]4N)c(S(N)(=O)=O)c3-c3nn[nH]n3)cccc2[nH]1 [Example 240]
- pIC50 (VIM-1; VIM-1 IC50, fluorescence assay): 9.77
- P. aeruginosa expressing IMP-1, efflux − (MB9799) MITC95 [1]: 0.7813 µM
- Efflux ratio [2, 8]: 1.00
- pIC50 (IMP-1): 9.13
- pIC50 (NDM-1): 10.25
- P. aeruginosa expressing IMP-1, efflux + (MB9798) MITC95 [3]: 0.7813 µM
- Klebsiella pneumoniae expressing VIM-1 (IHMA599644) MITC95 [4, 9]: 1.563 µM
- Serratia marcescens expressing IMP-1 (CL5741) MITC95 [5, 9]: 0.7813 µM
- Escherichia coli expressing NDM-1 (CLB30016) MITC95 [6, 9]: 0.1953 µM

SMILES: NCc1nc2c(-c3ccc(S(=O)(=O)NC[C@@H](O)CN)c(S(N)(=O)=O)c3-c3nn[nH]n3)cccc2[nH]1 [Example 305, (S)—N1-(3-amino-2-hydroxypropyl)-4-(2-(aminomethyl)-1H-benzo[d]imidazole-4-yl)-3-(2H-tetrazol-5-yl)benzene-1,2-disulfonamide]
- pIC50 (VIM-1; VIM-1 IC50, fluorescence assay): 9.76
- P. aeruginosa expressing IMP-1, efflux − (MB9799) MITC95 [1]: 0.7813 µM
- Efflux ratio [2, 8]: 1.00
- pIC50 (IMP-1): 8.69
- pIC50 (NDM-1): 9.87
- P. aeruginosa expressing IMP-1, efflux + (MB9798) MITC95 [3]: 0.7813 µM
- Klebsiella pneumoniae MITC95 ([4]; 95% inhibition of growth): 1.563 µM
- Serratia marcescens MITC95 ([5]; 95% inhibition of growth): 1.172 µM
- Escherichia coli MITC95 ([6]; 95% inhibition of growth): 1.172 µM

SMILES: NCCNS(=O)(=O)c1ccc(-c2cc(F)cc3[nH]c(N)nc23)c(-c2nnn[nH]2)c1S(N)(=O)=O [Example 180, 4-(2-amino-6-fluoro-1H-benzo[d]imidazol-4-yl)-N^1-(2-aminoethyl)-3-(1H-tetrazol-5-yl)benzene-1,2-disulfonamide]
- pIC50 (VIM-1; [7]): 9.79
- P. aeruginosa expressing IMP-1, efflux − (MB9799) MITC95 [1]: 0.7813 µM
- Efflux ratio [2, 8]: 0.50
- pIC50 (IMP-1): 9.41
- pIC50 (NDM-1): 10.33
- P. aeruginosa expressing IMP-1, efflux + (MB9798) MITC95 [3]: 0.3906 µM
- Klebsiella pneumoniae expressing VIM-1 (IHMA599644) MITC95 [4, 9]: 1.563 µM
- Serratia marcescens expressing IMP-1 (CL5741) MITC95 [5, 9]: 0.7813 µM
- Escherichia coli expressing NDM-1 (CLB30016) MITC95 [6, 9]: 0.3906 µM

SMILES: Nc1nc2c(-c3ccc(S(=O)(=O)NC[C@@H](N)C(=O)O)c(S(N)(=O)=O)c3-c3nn[nH]n3)cccc2s1 [Example 154, (R)-2-amino-3-((4-(2-aminobenzo[d]thiazol-4-yl)-2-sulfamoyl-3-(2H-tetrazol-5-yl)phenyl)sulfonamido)propanoic acid]
- pIC50 (VIM-1; [7]): 9.55
- P. aeruginosa expressing IMP-1, efflux − (MB9799) MITC95 [1]: 6.25 µM
- Efflux ratio [2, 8]: 0.50
- pIC50 (IMP-1): 9.81
- pIC50 (NDM-1): 10.17
- P. aeruginosa expressing IMP-1, efflux + (MB9798) MITC95 [3]: 3.125 µM
- Klebsiella pneumoniae expressing VIM-1 (IHMA599644) MITC95 [4, 9]: 25 µM
- Serratia marcescens expressing IMP-1 (CL5741) MITC95 [5, 9]: 6.25 µM
- Escherichia coli expressing NDM-1 (CLB30016) MITC95 [6, 9]: 50 µM
